Test system: colon adenocarcinoma C51
Assay: Antitumor effect and safety of CPT-11, combretastatin and their combinations in mice bearing colon adenocarcinoma C51
Type: in vivo
Procedure: This efficacy may be quantified, for example by the log10 cells killed, which is determined by the following formula:
log10 cells killed=T−C(days)/3.32×Td
in which T−C represents the time taken for the cells to grow, which is the mean time in days for the tumors of the treated group (T) to reach a predetermined value (1 g for example) and the tumors of the control group (C) to reach the same value, and Td represents the time in days needed for the volume of the tumors in the control group to double. (T. H. Corbett et al., Cancer, 40, 2660.2680 (1977); F. M. Schabel et al., Cancer Drug Development, Part B, Methods in Cancer Research, 17, 3-51, New York, Academic Press Inc. (1979)). A product is considered to be active if log10 cells killed is greater than or equal to 0.7. A product is considered to be very active if the log10 cells killed is greater than 2.8.
The effect of the combination of CPT-11 and combretastatin was evaluated in mice bearing colon adenocarcinoma C51. CPT-11 was given orally on days two through five, […], at different dosage levels. Combretastatin was administered intravenously, two times a day, on days one to five. In the combination arms, three different dosages of CPT-11 were administered orally twice daily on days two through five and three different dosages of combretastatin were administered intravenously twice a day on days one through five.
Combretastatin, administered intravenously, and CPT-11, administered orally, were tested in several different schedules as reported in Table IV. When used as a single agent, combretastatin was administered twice a day for five consecutive days. When CPT-11 was administered alone, it was given once a day for four consecutive days.
When administered sequentially, two schedules were used. When combretastatin was given first, it was administered on day 1, followed by administration of CPT-11 once a day on days 2-5. When CPT-11 was the first compound given in the sequence, it was administered once a day on days 1-4, followed by combretastatin on day 5.

| Compound | highest non-toxic dose (CPT-11 oral, single agent, mice) | Log10 Cell Kill (single agent CPT-11 oral 400 mg/kg (highest non-toxic dose), Colon 51, tumor size 400-500 mg, Td = 2.4 d) | Colon 51 PR (partial response: mice with decrease in tumor volume of at least 50% / mice tested) (single agent combretastatin IV 116.5 mg/kg/injection (highest non-toxic dose)) | Log10 Cell Kill (single agent combretastatin IV 116.5 mg/kg/injection (highest non-toxic dose), 2 x/day days 1-5, Colon 51) |
| --- | --- | --- | --- | --- |
| CCc1c2c(nc3ccc(OC(=O)N4CCC(N5CCCCC5)CC4)cc13)-c1cc3c(c(=O)n1C2)COC(=O)[C@]3(O)CC [CPT-11, irinotecan] | 400 mg/kg | 1.1 |  |  |
| Combretastatin |  |  | 5/5 | 1.3 |

Reference: patent US6562834B2, “Combination comprising camptothecin and a stilbene derivative for the treatment of cancer” (Aventis Pharma S. A., priority 2000, dated 2003)
